Results on eleven compounds are retold here after patent publication US6124266A, “Sulpholipid composition and methods for treating skin disorders” (Scotia Lipid Teknik AB, priority 1996, dated 2000).

Experiment [1] deals with leukotriene B4 synthesis in human leucocytes. The following applies: cited from earlier work.
Experiment [2] concerns PAF induced elastase release in human neutrophils. The experiment can be described thus: PAF induced exocytosis (elastase assay). Format: cell-based. The settings on record: for IC50: 10 min, human leucocytes, 37° C., mean of 2-4 experiments in duplicate, read-out: IC50, inhibition of PAF induced elastase release; for inhibitory activity in the PAF induced exocytosis model: in concentrations around the IC50 of SQDG. How it is done: In this test, which is also called the elastase assay, the effect of the extracts on inhibiting the exocytosis induced by PAF was examined. This model was used to guide the fractionation of the extracts or isolated compounds.
Cell preparation: Peripheral blood anti-coagulated with heparin was obtained from healthy volunteers at the University Hospital (in Uppsala, Sweden). After sedimentation with 10% Dextran T-500 (Pharmacia Fine Chemicals) for 30 min at 20° C. the supernatant was removed and centrifuged at 200×g for 30 min. The sediments were treated with one volume of ice-cold water for 21 s followed by the addition of 9 volumes of Mg^2+ and Ca^2+ free PBS in order to lyse the remaining erythrocytes. After centrifugation (200×g for 10 min at 4° C.) the leucocytes were suspended in PBS (containing Mg^2+ and Ca^2+ and Cytochalasin B, Serva, 5 μg/ml) at a concentration of 10-30×10^6 cells/ml.
The assay was performed as described by Tuominen et al., Planta Medica 58, 306-310 (1992). In short leucocytes were incubated at 37° C. in PBS containing 2.5% BSA together with SAAVNA (N-succinyl-L-alanyl-L-alanyl-L-valine-p-nitroanilide, Bachem), the inhibitor in different concentrations or the vehicle (max. 0.1% DMSO) and PAF (Bachem) for 10 min. Blank tubes without PAF were run in parallel. The reaction was stopped by the addition of 2% citric acid and after the centrifugation, the samples were measured in a UV spectrophotometer at 405 nm. The absorbance of the corresponding blank tube was subtracted from the sample and the inhibition of PAF induced elastase release was calculated as the […] in absorbance as compared to the vehicle. The samples were analyzed as 4-5 concentrations ranging from 10^-3 M to 10^-7 M. They were dissolved in 10% DMSO (the isolated compound) or cyclodextrin (BN 52021, used as a reference) and then diluted with the buffer. The final concentration of DMSO or cyclodextrin never exceeded 0.1%.
(§1) The PAF induced exocytosis model described above is used for screening for PAF receptor antagonists since it is a rapid, reproducable and reliable so called functional assay for PAF. However, a number of other actions, like elastase inhibition or membrane stabilisation, would also result in an inhibitory effect in the model which consequently is not exclusive for PAF receptor antagonism. To elucidate if SQDG acts through PAF receptor antagonism in the neutrophil, a receptor binding model using [3H]PAF as the radioligand was used.

Experiment [3] concerns the target T1, PAF receptor (Homo sapiens, UniProt P25105).
T1 construct: endogenous in cells; host or cells: human polymorphonuclear leukocytes (intact cells from concentrated suspensions of human leukocytes)
The experiment can be described thus: [3H]PAF receptor binding assay. The following applies: human polymorphonuclear leukocytes, 120 min, 20° C., pH 7.0, 0.35-0.40 nM [3H]PAF; mean of 2-4 experiments in triplicate; read-out: IC50, displacement of [3H]PAF binding.
Excerpt: as §1
Cell preparation: For the receptor binding experiments the cells were prepared in the same way as described above except that concentrated suspensions of human leukocytes in a CDP-adenine solution were used and in the final step the cells were suspended in the incubation buffer and the cell count was adjusted to 3.1×10^6 cells/ml.
[^3 H]PAF (C18; 1-O-[^3 H]octadecyl-2-acetyl-sn-3-phosphocholine; Amersham, England) receptor binding was studied in human polymorphonuclear leukocytes (2.5×10^6 cells/ml) using a method recently reevaluated by us (Vasange et al., in press, 1996). Incubations were performed for 120 min at 20° C. in a total volume of 1.0 ml containing […] 25 mM Tris HCl, 130 mM NaCl, 5.5 mM KCl, 1.4 mM CaCl2, 0.7 mM MgCl2, 10 mM glucose, 0.5% BSA and 0.35-0.40 nM [^3 H]PAF. Final pH was 7.0 at the incubation temperature used. Non-specific binding was determined with 1 μM C16-PAF (Bachem, Switzerland). The incubation contents were rapidly filtered by vacuum over Whatman GF/C glass-fibre filters using a 12 well Skatron Cell Harverster (Skatron A/S, Norway) and washed with 3×2 ml incubation buffer containing 0.1% BSA. The filtration took less than 15 s. Filters were also pre-soaked with incubation buffer containing 0.1% BSA. Following filtration, the filters were dried in an oven at 70° C. for 30 min and equilibrated for two hours in the scintillation vials before counting in a Packard scintillator at an efficiency of 55%. […]
A general note: Displacement assays read how much labelled ligand stays bound in the presence of the test substance.

Experiment [4] has as its system PAF receptor. The settings on record: cited from earlier work.
Experiment [5] concerns oedema induced by carrageenan potentiated by PAF. The following applies: rat, in vivo; cited from earlier work.
The subject of a further experiment is tumour promotion. The following applies: Chem. Pharm. Bull. 41 (9), 1664-1666, 1993; cited from earlier work.
The test system of experiment [6] is carrageenan induced rat paw oedema. The experiment can be described thus: Rat paw oedema induced by carrageenan. Format: in vivo, rat (Spraque Dawley). The settings on record: Na-salicylate 200 mg/kg (positive control), p < 0.0005.
Procedure: The most commonly used inducer is carrageenan which is injected to the hind paw of male Spraque Dawley rats.
Several tests were performed with the methanolic Calaguala extract which was applied orally in doses 500-2000 mg/kg. As positive control the cyclo-oxygenase inhibitor Na-salicylate (200 mg/kg) was used.
The significancies were calculated using Students t-test (one tailed).
Experiment [7] relates to ethyl phenyl propiolate (EPP) induced rat ear oedema. In words: Rat ear oedema (EPP induced). The following applies: mepyramine 1 μg/ear (positive control), 2 hours, 6 ears, p<0.01. Type of experiment: in vivo. How it is done: The rat ear oedema test is aimed to be used for detection of drugs with topical anti-inflammatory activity. It is based on the work by Tonelli et al., Endocrinology 77, 625-634, 1965, but instead of using the carcinogenic croton oil as induced, ethyl phenyl propiolate (EPP) is applied topically on the rat ears. The oedema develops rapidly (about 30 minutes) and starts to decline after two hours. Several measurements can be made by using a special measuring device and the values obtained with application of both EPP and the drug to be investigated are compared to values obtained with EPP alone.
The mechanism of the EPP induced oedema is not completely understood but it is known that compounds with broad anti-inflammatory action, like steroidal anti-inflammatory drugs, are active in this assay. The oedema can also be induced by other agents, such as arachidonic acid, and in that specific case the oedema is believed to develop through the action of the […], inflammatory mediators, leukotrienes. They can also contribute to the EPP oedema.
The Calaguala methanolic extract was tested in this model on several occasions. […]
The thickness of ears is measured after 2 hours. […] The significance of the values obtained was determined by using Students t-test (one tailed analysis). […]
The thickness of the ears was measured after 2 hours. […]

Read-outs that look alike come from different tables or passages of the source.

T1 sequence (P25105 whole entry): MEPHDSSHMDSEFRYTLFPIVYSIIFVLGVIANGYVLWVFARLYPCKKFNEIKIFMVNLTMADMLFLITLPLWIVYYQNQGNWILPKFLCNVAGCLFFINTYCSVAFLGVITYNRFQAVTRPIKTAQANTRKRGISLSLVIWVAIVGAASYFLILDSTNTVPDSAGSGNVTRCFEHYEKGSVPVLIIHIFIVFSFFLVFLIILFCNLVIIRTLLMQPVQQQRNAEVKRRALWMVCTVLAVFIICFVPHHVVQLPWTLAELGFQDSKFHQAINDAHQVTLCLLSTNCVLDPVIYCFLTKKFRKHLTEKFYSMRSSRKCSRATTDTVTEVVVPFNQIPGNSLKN

In the case of `CCCCCCCC/C=C\CCCCCCCC(=O)O` [oleic acid], the “inhibition of leukotriene B4 synthesis” value in experiment [1] is on record as “comparable inhibitory patterns”.
As for `CC/C=C\C/C=C\C/C=C\CCCCCCCC(=O)O` [linolenic acid], the “inhibition of leukotriene B4 synthesis” value in experiment [1] is “inhibitory activity”.
Consider `CCCCC/C=C\C/C=C\C/C=C\C/C=C\CCCC(=O)O` [arachidonic acid], for which, in experiment [1], the “inhibition of leukotriene B4 synthesis” value is recorded as “inhibitory activity”.
The term IC50 denotes the midpoint of a concentration-inhibition curve. With `CCCCCCCCCCCCCCCC(=O)OC[C@H](CO[C@H]1O[C@H](CS(=O)(=O)O)[C@@H](O)[C@H](O)[C@H]1O)OC(=O)CCCCCCCCCCCCCCC` [SQDG of the formula III, 1,2-O,O-dipalmitoyl-[6'-sulpho-α-D-quinovopyranosyl(1'→3)]-sn-glycerol], the half-inhibitory concentration (IC50) amounted to 10 µM in experiment [2] (Neutrophil) and 2 µM on PAF receptor [3].
Regarding `CC1C(=O)OC2C(O)C34C5CC(C(C)(C)C)C36C(OC(=O)C6O)OC4(C(=O)O5)C12O` (stereo not drawn) [BN 52021], the IC50 in experiment [2] amounted to 80 µM; at PAF receptor [3], 25 µM. Besides, the “anti-inflammatory properties in several in vivo and in vitro models” value in the experiment on PAF receptor [4] is listed as “anti-inflammatory properties”. In experiment [5], the “effect on PAF enhancement of carrageenan induced oedema” value is given as “capable of abolishing this enhancement”.
Consider monogalactosyldiacylglycerol [MGDG], for which the “inhibitory activity in the PAF induced exocytosis model” value in experiment [2] is listed as “no inhibitory activity”. For the same compound, the “inhibition of tumour promotion compared with SQDG” value in the experiment on tumour promotion was “inhibit tumour promotion more intensely than SQDG”.
As to `O=C(O)c1ccccc1O` [Na-salicylate], the “Mean decrease in oedema (Table 4)” value in experiment [6] is 43%.
Take digalactosyldiacylglycerol [DGDG]: the “inhibitory activity in the PAF induced exocytosis model” value in experiment [2] is “no inhibitory activity”. Also, in the experiment on tumour promotion, the “inhibition of tumour promotion compared with SQDG” value is listed as “inhibit tumour promotion more intensely than SQDG”.
With `COc1ccc(CN(CCN(C)C)c2ccccn2)cc1` [Mepyramin], the “Mean decrease in oedema (ear thickness, Table 2)” value in experiment [7] is listed as 44%.
For the compound `COc1ccc(NC(=S)N2CCc3c(sc4c3C(c3ccccc3Cl)=NCc3nnc(C)n3-4)C2)cc1` [BN 50730], the “PAF antagonistic activity in vitro (compared with BN 52021)” value with PAF receptor [4] (Guinot 1994) is listed as “several ten-folds more potent”. Besides, the IC50 at PAF receptor [3] was determined as 0.04 µM.
Turning to `CCCCC/C=C\C/C=C\CCCCCCCC(=O)O` [linoleic acid], in experiment [1], the “inhibition of leukotriene B4 synthesis” value is on record as “inhibitory activity”.
